This note sets out measurements from patent US7109317B1, “FK506-based regulation of biological events” (President and Fellows of Harvard College, priority 1998, dated 2006).

pEC50: −log10 of the molar value.

A word on the pEC50: it is the negative decadic logarithm of the EC50, by convention in mol/L.

In data set [1] the test system is calcineurin. The data set is described as follows: NFAT-SEAP reporter gene assay (calcineurin inhibition assay), PMA/ionomycin-stimulated. The following applies: dose-dependent suppression of PMA/ionomycin-induced activation of NFAT-SEAP reporter, transient transfection. Format: cell-based, human. The method, then:
(§1) In particular, we transfected human TAg Jurkat T cells with a reporter construct, NFAT-SEAP, which consists of 12 copies of the NFAT response element fused upstream of the gene for secreted alkaline phosphatase (SEAP). Following transfection, the cells were exposed to phorbol myristate acetate (PMA) and ionomycin (IO), which together are able to activate NFAT-SEAP reporter activity. […] Specifically, ten million Jurkat cells per condition were transfected with 500 ng of NFAT-SEAP reporter construct by electroporation (40 ms pulse) and aliquoted at 0.3×10^6/well into a 96-well microtiter plate. […] Cells were incubated 36 hours in a tissue culture incubator, then heat-inactivated for 2 hours at 65° C. Following heating, 100 μL of cell supernatants were transferred to a replica plate containing 100 μL of assay buffer (120 μM 4-methylumbelliferyl phosphate in 2M diethanolamine bicarbonate, pH 10). Assays were incubated 8 hours before reading on a Fluoroskan plate reader.
Background: In a reporter assay the amount or activity of a reporter protein is the signal.

Data set [2] deals with mink lung cells (FKBP). Put plainly: rapamycin-dependent effect in mink lung cells, suppression by FK506 derivatives. Format: cell-based. An excerpt: To rule out these other possibilities, we tested two of the derivatives for their ability to suppress a rapamycin-dependent effect in mink lung cells (Paul A Clemons and Brent Stockwell, unpublished observations).
The subject of data set [3] is endogenous calcineurin (NFAT-SEAP reporter, human TAg Jurkat T cells). The data set is described as follows: NFAT-SEAP reporter assay (calcineurin inhibition assay), PMA + ionomycin stimulated human TAg Jurkat T cells. The class given is cell-based. The following applies: for inhibition of NFAT-SEAP activity: PMA/ionomycin-induced reporter activity.
Text: A similar strategy can be used to identify bump-hole pairs for the CAB domain.
Each of the residues in question is part of the CAB minimal binding domain structure. […] These mutations may be inserted randomly or in a directed fashion, as described above for FKBP.
as §1

The subject of data set [4] is mink lung cells. The data set is described as follows: Suppression of a rapamycin-dependent effect in mink lung cells. Format: cell-based. Conditions: unpublished observations. An excerpt:
Other possibilities for the reduced activity of derivatives in this assay are 1) compound insolubility in tissue culture media, 2) inability of compound to penetrate the cell membrane, or 3) inability of compound to bind to FKBP. To rule out these other possibilities, we tested two of the derivatives for their ability to suppress a rapamycin-dependent effect in mink lung cells (Paul A Clemons and Brent Stockwell, unpublished observations).

Data set [5] has as its system (340miniCABMG)2-VE, two 340miniCAB domains in series fused to VP16, with FKBP3-GE. Put plainly: SEAP assay, two 340miniCAB domains in series (VE) with FKBP3-GE. Format: cell-based, human. The following applies: FK506, with FKBP3-GE. As for the experimental part:
(§2) 10 million T-antigen transformed Jurkat T-cells growing in log phase at 37 degrees with 5% CO2 in RPMI medium supplemented with 10% FBS, Penicillin and Streptomycin, and Glutamate are centrifuged for 5 minutes at 1000×g. This pellet is washed with RPMI without phenol-red and re-pelleted by centrifugation at 1000×g for 5 minutes. 200 microliters of phenol-free RPMI are used to resuspend each 10 million cells. 200 microliters of these cells are then incubated for 10 minutes at room temperature with 1 microgram of the UAS-SEAP reporter, 1 microgram of the DNA binding domain containing construct, and 5 micrograms of the activation domain containing construct. Electroporation is performed at […], 129 Ohms on a BTX electroporator. The cells are allowed to recover at room temperature for another 10 minutes. They are then resuspended in 10 mLs of RPMI w/o phenol red supplemented with 10% FBS, penicillin, streptomycin, and Glutamate and returned to the 37 degree incubator with 5% CO2 for 24 hrs.
(§3) After recovery, the cells are pelleted by centrifugation at 1000×g for 5 minutes and resuspended in 5 mLs of RPMI w/o phenol red supplemented with 10% FBS, penicillin, streptomycin, and Glutamate. 100 microliters of this cell suspension is plated on a 96 well plate. […]

Data set [6] deals with 350miniCABs (CNA residues 350–394 fused to CNBMG or CNBM, VP16), with FKBP3-GE. Put plainly: SEAP assay, 350miniCAB-VE with FKBP3-GE. Format: cell-based, human. The following applies: FK506, with FKBP3-GE. An excerpt:
Four such minimal CAB proteins were created by PCR and ligation. Two of the miniCABs contained CNA residues 340–394 fused to either CNBMG or CNBM(340miniCABs). The other two miniCABs contained CNA residues 350–394 fused to either CNBMG or CNBM(350miniCABs). Each of these miniCABs was also fused to the VP16 transactivation domain.
Consistent with the relative activity of CNBMG and CNBM, 340miniCABMG-VE was able to induce higher SEAP activity than 340miniCABM-VE.

The test system of data set [7] is 2 tandem minicabs (340–394 of CNA and 3–170 of CNB) fused to VP16, with Gal4 fused to 3 FKBPs. Put plainly: SEAP transcription activation assay, 2 tandem minicabs fused to VP16. Conditions: FK506, SEAP. As for the experimental part:
as §2, §3

Data set [8] relates to fCAB, CnA (12–394) fused to CnB (3–170), human calcineurin A (SEQ ID NO: 33) and calcineurin B (SEQ ID NO: 35). The data set is described as follows: NFAT-SEAP reporter assay with overexpressed full length CAB (fCAB). The class given is cell-based. Conditions: 500–5000 ng fCAB construct DNA, 500 ng NFAT-SEAP. The method, then: Primers containing restriction sites were prepared in order to amplify two different fragments of calcineurin A, corresponding the full-length CAB (fCAB) and the minimal CAB (mCAB). These PCR fragments were subcloned directionally into the polylinker to generate the following constructs: ATG-XhoI-CnA (12–394)-SalI-SpeI-TAA-EcoRI ATG-XhoI-CnA (340–394)-SalI-SpeI-TAA-EcoRI Primers containing restriction sites were prepared in order to amplify the fragment of calcineurin B corresponding to residues 3–170 of this protein. […] This fusion results in another (SalI/XhoI) fusion which cannot be cut by either enzyme. A similar strategy is possible to generate multimers of the CAB domain, greatly facilitating the production of these reagents. Since all of the restriction enzymes within the coding region are 6-base cutters, they preserve the reading frame for protein synthesis. The mature CAB should have the following amino acid sequence: NH2-Met-Leu-Glu-(CnA frag)-Val-Glu-(CnB frag)-Val-Asp-Thr-Ser-COOH • (SEQ ID NO 22) New mCAB-p65 constructs were verified by sequence analysis.
In particular, we transfected human TAg Jurkat T cells with a reporter construct, NFAT-SEAP, which consists of 12 copies of the NFAT response element fused upstream of the gene for secreted alkaline phosphatase (SEAP). […] Assays were incubated 8 hours before reading on a Fluoroskan plate reader. […]

Data set [9] relates to full length CABMG-GE (CNA residues 12–394 fused to CNBMG, GAL4), with FKBP3-VE. The data set is described as follows: SEAP assay, full length CABMG-GE with FKBP3-VE. The method, then:
as §2, §3

The subject of data set [10] is 340miniCAB-VE constructs (CNA residues 340–394 fused to CNBMG or CNBM, VP16), with FKBP3-GE. Put plainly: SEAP assay, 340miniCAB-VE with FKBP3-GE. The class given is cell-based, human. As for the experimental part: as §2
After recovery, the cells are pelleted by centrifugation at 1000×g for 5 minutes and resuspended in 5 mLs of RPMI w/o phenol red supplemented with 10% FBS, penicillin, streptomycin, and Glutamate. 100 microliters of this cell suspension is plated on a 96 well plate. Appropriate dilutions of the dimerizer from an ethanolic solution (2 micromolar to 0.2 nanomolar) are made in the same media that the cells were resuspended in such that the concentration of ethanol is less than 1%.

Data set [11] deals with (340miniCABMG)3-VE, three 340miniCABs in series fused to VP16, with FKBP3-GE. The data set is described as follows: SEAP assay, three 340miniCAB domains in series (VE) with FKBP3-GE. Format: cell-based, human. The following applies: FK506, with FKBP3-GE. The method, then: as §2, §3
Data set [12] has as its system full length CABs (residues 12–394 of human calcineurin A, SEQ ID NO: 33, fused to residue 2 or residue 3 of calcineurin B, SEQ ID NO: 35) fused to VP16 or …. Put plainly: SEAP transcription activation assay, full length CABs fused to VP16 or GAL4. The class given is cell-based. Conditions: FK506 titration, Jurkat T-cells. An excerpt:
The summary of our data in this transcription assay is as follows. The full length CABS (residues 12–394 of calcineurin A fused to residue 2 or to residue 3 of Calcinuerin B) are functional when fused to VP16 or to GAL4. They have an EC50 of ˜1 nanoMolar.

For `CO[C@H]1C[C@@H](C)C/C(C)=C/[C@@H](CC=Cc2ccccc2)C(=O)C[C@H](O)[C@@H](C)[C@@H](/C(C)=C/[C@@H]2CC[C@@H](O)[C@H](OC)C2)OC(=O)[C@@H]2CCCCN2C(=O)C(=O)[C@]2(O)O[C@H]1[C@@H](OC)C[C@H]2C` [C40-phenyl-FK506], in data set [1], the “fold less immunosuppressive than FK506” value is on record as “at least 30 fold”. Besides, the “suppression of rapamycin-dependent effect” value in data set [2] is reported as “able to suppress the effects of rapamycin”. Besides, in [3], the “inhibition of NFAT-SEAP activity” value is listed as “inability of C40-phenyl-FK506 to inhibit NFAT-SEAP activity”. Moreover, the “immunosuppressive activity relative to FK506 (dose-dependent suppression of PMA/ionomycin-induced NFAT-SEAP activation)” value in data set [3] (fold less immunosuppressive than FK506, transient transfection) was “at least 30 fold”. In addition, the “ability to suppress the effects of rapamycin” value in [4] is given as “able to suppress the effects of rapamycin”.
As to `C=CC[C@@H]1/C=C(\C)C[C@H](C)C[C@H](OC)[C@H]2O[C@@](O)(C(=O)C(=O)N3CCCC[C@H]3C(=O)O[C@H](/C(C)=C/[C@@H]3CC[C@@H](O)[C@H](OC)C3)[C@H](C)[C@@H](O)CC1=O)[C@H](C)C[C@@H]2OC` [FK506], the pEC50 in [5] was ~8.89; in [10] (miniCABs, FK506, SEAP), ~8.52; in data set [11], ~8.89; in data set [12], ~9.00. Moreover, the “stimulation of SEAP activity” value in [6] is listed as “neither of the 350miniCABs were able to stimulate SEAP activity”; in data set [10] (FK506-dependent, with FKBP3-GE), “able to stimulate SEAP activity”. The “inhibition of NFAT-SEAP activity” value in data set [3] is listed as “antagonizes the effect of PMA+IO in a dose-dependent manner”. Also, in data set [7], the total activation is ~20 fold. In data set [8], the “inhibition of reporter gene activity at high level of fCAB overexpression” value is on record as “a high level of fCAB overexpression overcame the ability of FK506 or its derivatives to inhibit reporter gene activity”. Besides, the “enhancement of SEAP activity” value in data set [9] (FK506, with FKBP3-VE) is given as 2.0 fold. Further, the “stimulation of SEAP activity in the absence of FK506” value in data set [9] (full CAB-GE and CAB-VE, no FK506) is reported as “do not stimulate activity in the absence of FK506”. Also, the “EC50 of the miniCABs compared with full length CABMG-VE” value in data set [10] (relative to full length CABMG-VE) was “an order of magnitude greater than for full length CABMG-VE”.
Turning to `CO[C@H]1C[C@@H](C)C/C(C)=C/[C@@H](CC=Cc2ccc(Oc3ccccc3)cc2)C(=O)C[C@H](O)[C@@H](C)[C@@H](/C(C)=C/[C@@H]2CC[C@@H](O)[C@H](OC)C2)OC(=O)[C@@H]2CCCCN2C(=O)C(=O)[C@]2(O)O[C@H]1[C@@H](OC)C[C@H]2C` [C40-p-phenoxyphenyl-FK506], the “suppression of rapamycin-dependent effect” value in [2] is “able to suppress the effects of rapamycin”.
